Assay [1] addresses T1, SARS-CoV-2 PLpro (nsp3 1564–1878) (Severe acute respiratory syndrome coronavirus 2, UniProt P0DTD1). Nature of the assay: biochemical. More on the design: FRET-quenched peptide (Pro3) cleavage by PLpro, 10 min pre-incubation, slope over 20 min, normalised to no-compound control. Particulars: low concentration screen, read-out: % of control remaining.
Assay [2] deals with T1, SARS-CoV-2 PLpro (nsp3 1564–1878). Nature of the assay: biochemical. On the set-up: FRET-quenched peptide (Pro3) cleavage by PLpro, 10 min pre-incubation, slope over 20 min, normalised to no-compound control. The following applies: high concentration screen, read-out: % of control remaining.

Structures can show the parent of a compound that is named as a salt. Where two headings read alike, the source gives them in different places.

On to `CN(C)CCCC1(c2ccc(F)cc2)OCc2cc(C#N)ccc21` (stereo not shown) [Citalopram hydrobromide], for which the remaining activity at 1.25 µM in assay [1] (Well no.=90) stood at 95%. In addition, in assay [2] (Well no.=90), the remaining activity at 3.75 µM stood at 100%.
As for `CCC[C@H](N[C@@H](C)C(=O)N1[C@H](C(=O)O)C[C@@H]2CCCC[C@@H]21)C(=O)OCC` [Perindopril (erbumine)], the remaining activity at 1.25 µM in assay [1] (Well no.=8070) came to 106%. For the same molecule, in assay [2] (Well no.=8070), the remaining activity at 3.75 µM is 102%.
For the molecule `NC(CO)C(=O)NNCc1ccc(O)c(O)c1O` (stereo not shown) [Benserazide], in assay [1] (Well no.=1903), the remaining activity at 1.25 µM was 97.8%. The remaining activity at 3.75 µM in assay [2] (Well no.=1903) was determined as 97.7%.
For the molecule `COC(=O)CCSCc1ccc(-c2onc(C)c2NC(=O)OC(C)c2ccccc2Cl)cc1` (stereo not shown) [Ki16198], the remaining activity at 1.25 µM in assay [1] (Well no.=5219) is 89.4%. Moreover, the remaining activity at 3.75 µM in assay [2] (Well no.=5219) stood at 96.1%.
For the molecule `COc1ccc(C(=O)O[C@H]2CC[C@@]3(C)[C@@H]4CC[C@H]5[C@]6(O)C[C@H](O)[C@@]7(O)[C@@H](CN8C[C@@H](C)CC[C@H]8[C@@]7(C)O)[C@]6(O)C[C@@]53O[C@]24O)cc1OC` [Veratridine], in assay [1] (Well no.=3222), the remaining activity at 1.25 µM amounted to 99.9%. Also, the remaining activity at 3.75 µM in assay [2] (Well no.=3222) turned out to be 101%.
On to `NC1=NCC2c3ccccc3Cc3ccccc3N12` (stereo not shown) [Epinastine], for which the remaining activity at 1.25 µM in assay [1] (Well no.=6611) amounted to 96%. Also, the remaining activity at 3.75 µM in assay [2] (Well no.=6611) turned out to be 94.8%.
As to `COc1ccc(C2CNC(=O)C2)cc1OC1CCCC1` (stereo not shown) [Rolipram], the remaining activity at 1.25 µM in assay [1] (Well no.=1302) is 102%; in assay [1] (Well no.=2152), 101%. Further, the values for the remaining activity at 3.75 µM in assay [2] (Well no.=1302) and in assay [2] (Well no.=2152) were 103% and 102%, respectively.
Turning to `COc1cc(/C=C/C(=O)CC(=O)/C=C/c2ccc(O)cc2)ccc1O` [(1E,6E)-1-(4-hydroxy-3-methoxyphenyl)-7-(4-hydroxyphenyl)-1,6-heptadiene-3,5-dione], in assay [1] (Well no.=5795), the remaining activity at 1.25 µM was found to be 90.1%. In addition, in assay [2] (Well no.=5795), the remaining activity at 3.75 µM amounted to 95.2%.
Turning to `NC(=O)CCCSc1nc(N)nc(-c2c(Cl)cc3c4c(cccc24)COC3)n1` [CH5138303], in assay [1] (Well no.=8668), the remaining activity at 1.25 µM was found to be 95%. Also, in assay [2] (Well no.=8668), the remaining activity at 3.75 µM stood at 90.8%.
For the molecule `CCCCCCCCCCCCCCC[C@@H](O)[C@@H](N)CO` [Dihydrosphingosine], in assay [1] (Well no.=4399), the remaining activity at 1.25 µM was 101%. The remaining activity at 3.75 µM in assay [2] (Well no.=4399) amounted to 96.6%.
For the molecule `CCC(C)C(=O)C(=O)O` (stereo not shown) [3-Methyl-2-oxovaleric acid], the remaining activity at 1.25 µM in assay [1] (Well no.=6977) was 100%. Moreover, the remaining activity at 3.75 µM in assay [2] (Well no.=6977) came to 101%.
`CC(C)CN(C)c1nc(N)c(C(=O)N=C(N)N)nc1Cl` [5-(N-Methyl-N-isobutyl)amiloride]: the remaining activity at 1.25 µM in assay [1] (Well no.=209) turned out to be 99.9%. Also, the remaining activity at 3.75 µM in assay [2] (Well no.=209) amounted to 100%.
`O=C(NCCCCN1CCN(c2cccc(Cl)c2Cl)CC1)c1ccc2c(c1)Cc1ccccc1-2` [NGB 2904 hydrochloride]: the remaining activity at 1.25 µM in assay [1] (Well no.=5407) was determined as 97.8%. For the same molecule, in assay [2] (Well no.=5407), the remaining activity at 3.75 µM turned out to be 101%.
For `C=C(C)[C@@H]1CC[C@]2(CO)CC[C@]3(C)[C@H](CC[C@@H]4[C@@]5(C)CC[C@H](O)C(C)(C)[C@@H]5CC[C@]43C)[C@@H]12` [Betulin], the remaining activity at 1.25 µM in assay [1] (Well no.=3835) came to 103%. For the same molecule, in assay [2] (Well no.=3835), the remaining activity at 3.75 µM amounted to 101%.
As to `CCc1cccc(CC)c1NC(=O)N1Cc2[nH]nc(NC(=O)c3ccc(N4CCN(C)CC4)cc3)c2C1` [PHA-680632], the remaining activity at 1.25 µM in assay [1] (Well no.=4865) turned out to be 97.9%. Moreover, the remaining activity at 3.75 µM in assay [2] (Well no.=4865) is 101%.
In the case of `CC(C)(C)c1ccc(C(=O)NC(=S)Nc2ccc(N)cc2)cc1` [Tenovin-3], in assay [1] (Well no.=7072), the remaining activity at 1.25 µM was 102%. In addition, the remaining activity at 3.75 µM in assay [2] (Well no.=7072) came out at 97.4%.
`CNC[C@H](O)c1ccc(O)c(O)c1` [Epinephrine bitartrate (Adrenalinium)]: the remaining activity at 1.25 µM in assay [1] (Well no.=5254) stood at 105%. The remaining activity at 3.75 µM in assay [2] (Well no.=5254) amounted to 101%.
For the molecule `Nc1ncnc2c1nc(Sc1ccc(Cl)cc1)n2C1OC2COP(=O)(O)O[C@@H]2[C@@H]1O` (stereo partly shown) [8-(4-Chlorophenylthio)-cAMP sodium], in assay [1] (Well no.=126), the remaining activity at 1.25 µM was determined as 104%. Further, the remaining activity at 3.75 µM in assay [2] (Well no.=126) stood at 105%.
As for `Nc1ncnc2c1ncn2[C@@H]1O[C@H](COP(=O)(O)OP(=O)(O)OP(=O)(O)OP(=O)(O)OC[C@H]2O[C@@H](n3cnc4c(N)ncnc43)[C@H](O)[C@@H]2O)[C@@H](O)[C@H]1O` [P1,P4-Di(adenosine-5')tetraphosphate triammonium], in assay [1] (Well no.=731), the remaining activity at 1.25 µM came to 96.1%. In addition, the remaining activity at 3.75 µM in assay [2] (Well no.=731) was 94.1%.
In the case of `O=C(O)c1ccccc1Nc1ccccc1` [N-Phenylanthranilic acid], the remaining activity at 1.25 µM in assay [1] (Well no.=51) was found to be 101%. Also, the remaining activity at 3.75 µM in assay [2] (Well no.=51) was found to be 95.6%.
With `O=C1C[C@@H](c2ccc(O)c(O)c2)Oc2cc(O[C@@H]3O[C@H](CO)[C@@H](O)[C@H](O)[C@H]3O)cc(O)c21` [Eriodictyol-7-O-glucoside], the remaining activity at 1.25 µM in assay [1] (Well no.=3261) was 96.6%. Moreover, in assay [2] (Well no.=3261), the remaining activity at 3.75 µM stood at 95.5%.
Consider `CC1(C)CC(NC(=O)C(=O)Nc2ccc(Cl)cc2)CC(C)(C)N1` [N~1~-(4-chlorophenyl)-N~2~-(2,2,6,6-tetramethyl-4-piperidinyl)ethanediamide], for which, in assay [1] (Well no.=6039), the remaining activity at 1.25 µM was 97.6%. For the same molecule, in assay [2] (Well no.=6039), the remaining activity at 3.75 µM turned out to be 101%.
Turning to `NCC(O)(CS(=O)(=O)O)c1ccc(Cl)cc1` (stereo not shown) [2-Hydroxysaclofen], in assay [1] (Well no.=355), the remaining activity at 1.25 µM was found to be 97.9%. Moreover, the remaining activity at 3.75 µM in assay [2] (Well no.=355) amounted to 95.6%.
Regarding `CN1CCc2ccccc2Cc2[nH]c3ccccc3c2CC1` [LE 300], the remaining activity at 1.25 µM in assay [1] (Well no.=1027) stood at 101%. In assay [2] (Well no.=1027), the remaining activity at 3.75 µM turned out to be 101%.
Take `CCNc1ncnc2c1ncn2[C@@H]1O[C@H](CO)[C@@H](O)[C@H]1O` [N6-Ethyladenosine]: the remaining activity at 1.25 µM in assay [1] (Well no.=7906) turned out to be 99.5%; in assay [1] (Well no.=8517) it was 100%. The remaining activity at 3.75 µM in assay [2] (Well no.=7906) amounted to 97.7%; in assay [2] (Well no.=8517), 95.1%.
Consider `C#C[C@]1(CO)O[C@@H](n2cnc3c(N)nc(F)nc32)C[C@@H]1O` [Islatravir], for which the remaining activity at 1.25 µM in assay [1] (Well no.=7822) amounted to 105%. The remaining activity at 3.75 µM in assay [2] (Well no.=7822) stood at 105%.
Consider `Nc1nc(F)nc2c1ncn2[C@@H]1O[C@H](CO)[C@@H](O)[C@@H]1O` [Fludarabine (Fludara)], for which the remaining activity at 1.25 µM in assay [1] (Well no.=5249) turned out to be 98.3%. Also, the remaining activity at 3.75 µM in assay [2] (Well no.=5249) was determined as 99.9%.
As to `Nc1ccn([C@H]2C[C@H](O)[C@@H](CO)O2)c(=O)n1` [2'-Deoxycytidine (hydrochloride)], in assay [1] (Well no.=7806), the remaining activity at 1.25 µM came out at 105%. The remaining activity at 3.75 µM in assay [2] (Well no.=7806) was 109%.
In the case of `Clc1ccccc1CN1CCc2sccc2C1` [Ticlopidine], in assay [1] (Well no.=1746), the remaining activity at 1.25 µM was 92.5%. The remaining activity at 3.75 µM in assay [2] (Well no.=1746) was found to be 92.5%.
Turning to `N[C@H](C(=O)O)c1cc(O)cc(O)c1` [(S)-3,5-Dihydroxyphenylglycine], the remaining activity at 1.25 µM in assay [1] (Well no.=401) worked out at 102%. The remaining activity at 3.75 µM in assay [2] (Well no.=401) was 98.7%.

The values are drawn from paper PMC8286840, “Identifying SARS-CoV-2 antiviral compounds by screening for small molecule inhibitors of Nsp3 papain-like protease” (Biochemical Journal, 2021).
